This passage reports IC50 results from patent publication US20250051327A1, “MALT-1 MODULATORS” (EXSCIENTIA AI LIMITED, priority 2020, published 2025).

The assay has as its target Recombinant human MALT-1 (amino acids 340-824) (Homo sapiens (Human), UniProt Q9UDY8). Kind of assay: MALT-1 inhibition assay (fluorogenic substrate Ac-LRSR-Rh110-DP). In kind it is biochemical. The following applies: recombinant human MALT-1, substrate Ac-LRSR-Rh110-DP. Here is the method: MALT-1 paracaspase activity was measured using the fluorogenic substrate Ac-LRSR-Rh110-DP (purchased from Biosantan GmbH). […] The reaction was initiated by addition of substrate. Final concentrations of MALT-1 and substrate were 3 nM and 10 μM respectively. Reactions were incubated in the dark for 60 minutes at 25° C. […] Percent inhibition values were calculated from relative fluorescence units at different doses and fitted to a 4-parameter logistic curve to determine IC50 values (see Table 1).

pIC50: −log10 of the molar value.

Sequence of Recombinant human MALT-1 (amino acids 340-824) (Q9UDY8 340-824): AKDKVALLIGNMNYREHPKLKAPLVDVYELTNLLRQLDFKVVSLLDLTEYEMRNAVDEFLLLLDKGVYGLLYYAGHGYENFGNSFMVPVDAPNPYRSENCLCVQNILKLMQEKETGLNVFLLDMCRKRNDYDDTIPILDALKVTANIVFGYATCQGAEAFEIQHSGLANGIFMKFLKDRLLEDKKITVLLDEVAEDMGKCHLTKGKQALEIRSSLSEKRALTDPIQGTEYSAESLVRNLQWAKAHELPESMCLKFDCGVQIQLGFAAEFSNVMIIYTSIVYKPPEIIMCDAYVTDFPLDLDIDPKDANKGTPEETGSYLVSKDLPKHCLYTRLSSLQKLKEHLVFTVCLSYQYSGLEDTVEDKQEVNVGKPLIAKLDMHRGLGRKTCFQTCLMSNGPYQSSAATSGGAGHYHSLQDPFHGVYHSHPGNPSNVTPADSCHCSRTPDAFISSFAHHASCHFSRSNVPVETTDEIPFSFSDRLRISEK

In the case of `CO[C@@H](C)c1c(Nc2ccc([C@H](N(C)C(=O)[C@H]3CC[S@@](=N)(=O)CC3)C(F)(F)F)cc2)cnn2cc(Cl)nc12` (relative stereo) [CPD0082474, (1rel-s,4rel-s) N-[(1 S)-1-[4-[[2-chloro-8-[(1S)-1-methoxyethyl]imidazo[1,2-b]pyridazin-7-yl]amino]phenyl]-2,2,2-trifluoro-ethyl]-1-imino-N-methyl-1-oxo-thiane-4-carboxamide], the pIC50 was 7.30.

As to `CO[C@@H](C)c1c(Nc2ccc([C@H](N(C)C(=O)C3CC4(C3)CS(=O)(=O)C4)C(F)(F)F)cc2)cnn2cc(Cl)nc12` [CPD0084934], the pIC50 was 7.27.

For `CO[C@@H](C)c1c(Nc2ccc([C@H](N(C)C(=O)C3CCN(C(=O)CO)CC3)C(F)(F)F)cc2)cnn2cc(Cl)nc12` [CPD0084141, N-[(1S)-1-[4-[[2-chloro-8-[(1S)-1-methoxyethyl]imidazo[1,2-b]pyridazin-7-yl]amino]phenyl]-2,2,2-trifluoro-ethyl]-1-(2-hydroxyacetyl)-N-methyl-piperidine-4-carboxamide], the pIC50 was 7.37.

As for `C[C@H]1CCc2c(cnc3cc(Cl)nn23)N1c1ccc([C@H](N(C)C(=O)[C@H]2CC[S@@](=N)(=O)CC2)C(F)(F)F)cc1` (relative stereo) [CPD0074565, (1rel s 4rel s) N-[(1S)-1-[4-[(11-rel S)-4-chloro-11-methyl-2,3,7,10-tetrazatricyclo[7.4.0.0^2,6]trideca-1(9),3,5,7-tetraen-10-yl]phenyl]-2,2,2-trifluoro-ethyl]-1-imino-N-methyl-1-oxo-thiane-4-carboxamide], the pIC50 is 6.42.

Regarding `CN(C(=O)[C@@H]1CCN(C(=O)C2(O)CC2)C1)[C@@H](c1ccc(N2CCCc3c2cnc2cc(Cl)nn32)cc1)C(F)(F)F` [CPD0073978, (3rel-R)-N-[(1S)-1-[4-(4-chloro-2,3,7,10-tetrazatricyclo[7.4.0.0^2,6]trideca-1(9),3,5,7-tetraen-10-yl)phenyl]-2,2,2-trifluoro-ethyl]-1-(1-hydroxycyclopropanecarbonyl)-N-methyl-pyrrolidine-3-carboxamide], the pIC50 was 7.27.

In the case of `COc1ccc2ncc(Nc3ccc([C@H](N(C)C(=O)C4CCN(C(C)=O)CC4)C(F)(F)F)cc3)c([C@H]3CCOC3)c2n1` [CPD0082479], the pIC50 was 6.95.

As to `COc1ccc2ncc(Nc3ccc([C@@H](N(C)C(=O)[C@H]4CC[S@](=N)(=O)CC4)C(F)(F)F)cc3)c([C@@H](C)OC)c2n1` (stereo in doubt) [CPD0077189, (1 rel-s,4rel-s)-1-imino-N-methyl-1-oxo-N-[(1R)-2,2,2-trifluoro-1-[4-({6-methoxy-4-[(1 rel-R)-1-methoxyethyl]-1,5-naphthyridin-3-yl}amino)phenyl]ethyl]-1λ^6-thiane-4-carboxamide], the pIC50 is 6.56.

For the molecule `CN(C(=O)[C@H]1CNC(=O)C1)[C@H](c1ccc(N2CCCc3c2cnc2cc(Cl)nn32)cc1)C(F)(F)F` (stereo in doubt) [CPD0077244, (3 rel-R)—N-[(1R)-1-[4-(4-chloro-2,3,7,10-tetrazatricyclo[7.4.0.0^2,6]trideca-1(9),3,5,7-tetraen-10-yl)phenyl]-2,2,2-trifluoro-ethyl]-N-methyl-5-oxo-pyrrolidine-3-carboxamide], the pIC50 is 6.24.

In the case of `CN(C(=O)[C@H](O)C1CCS(=O)(=O)CC1)[C@@H](c1ccc(N2CCCc3c2cnc2cc(Cl)nn32)cc1)C(F)(F)F` (relative stereo) [CPD0073972, (2rel-R)—N-[(1S)-1-(4-{4-chloro-2,3,7,10-tetraazatricyclo[7.4.0.0^2,6]trideca-1(9),3,5,7-tetraen-10-yl}phenyl)-2,2,2-trifluoroethyl]-2-(1,1-dioxo-1λ^e-thian-4-yl)-2-hydroxy-N-methylacetamide], the pIC50 was 6.96.

Regarding `C[C@@H]1CCN(c2ccc([C@H](N(C)C(=O)[C@H]3CNC(=O)C3)C(F)(F)F)cc2)c2cnc3cc(Cl)nn3c21` [CPD0074560], the negative-log IC50 (pIC50) is 7.37.

As to `CN(C(=O)[C@@H]1CCN(C(=O)CO)C1)[C@@H](c1ccc(N2CCCc3c2cnc2cc(F)nn32)cc1)C(F)(F)F` [CPD0075879], the pIC50 was 6.81.
